Test results from patent US9718825B2, “N-(4-(azaindazol-6-yl)-phenyl)-sulfonamides and their use as pharmaceuticals” (priority 2013, dated 2017).
pIC50: −log10 of the molar value. Read-outs that look alike come from different tables or passages of the source.

What was measured:
[1] = molecular target: recombinant human SGK-1 enzyme (Homo sapiens, UniProt O00141); assay: Enzymatic activity assay: SGK-1 substrate peptide phosphorylation (Caliper lab-chip mobility shift); assay type: biochemical
[2] = test system: collagen type X (Col10a1) expression in mouse chondrogenic ATDC5 cells; assay: Chondrocyte hypertrophic differentiation in mouse chondrogenic ATDC5 cells (collagen type X expression); assay type: cell-based; details: Col10a1 expression by quantitative real-time PCR after two weeks of cell culture; read-out: IC50 values for the inhibition of collagen type X expression in mouse chondrogenic ATDC5 cells
Excerpt: D) Determination of the effect on chondrocyte hypertrophic differentiation in mouse chondrogenic ATDC5 cells
The ATDC5 cell assay was used as in vitro model to determine the effects of the compounds of the invention on chondrocyte hypertrophic differentiation by monitoring the expression levels of collagen type X (Col10a1) as specific marker of chondrocyte hypertrophy.
Background: ATDC5 cells are a clonal mouse embryonic cell line derived from multipotent AT805 teratocarcinoma cells (Atsumi, T. et al., A chondrogenic cell line derived from a differentiating culture of AT805 teratocarcinoma cells, Cell Differ. Dev. 1990, 30, 109-116). The cells can undergo insulin-dependent chondrogenic cell differentiation entailing distinct differentiation stages starting from an undifferentiated, subconfluent stage, a condensation stage, a cartilage nodule formation stage and a calcification stage within 45 days of in vitro culture. Chondrogenic differentiation can be shown by measuring the expression of the cartilage main collagen (Col2a1) and aggrecan (AGC1) and glycosaminoglycan-staining with Alcian Blue within two weeks after insulin-triggered differentiation, and hypertrophic differentiation can be monitored by the expression of collagen type X (Col10a1), a specific marker of chondrocyte hypertrophy within 21 days of in vitro culture. (Shukunami, C. et al., Chondrogenic Differentiation of Clonal Mouse Embryonic Cell Lne ATDC5 In Vitro: Differentiation-dependent Gene Expression of Parathyroid Hormone (PTH)/PTH-related Peptide Receptor, J. Cell Biol. 1996, 133, 457-468). Growth factor BMP-2 is known to stimulate cell differentiation and can stimulate early and late-phase ATDC5 differentiation (Shukunami, C. et al., Sequential Progression of the Differentiation Program by Bone Morphogenetic Protein-2 in Chondrogenic Cell Line ATDC5, Exp. Cell Res. 1998, 241, 1-11). Thyroid hormone triiodothyronine (T3) promotes hypertrophic differentiation of growth plate chondrocytes (Robson, H. et al., Thyroid Hormone Acts Directly on Growth Plate Chondrocytes to Promote Hypertrophic Differentiation and Inhibit Clonal Expansion and Cell Proliferation, Endocrinology 2000, 141, 3887-3897). Addition of BMP2 and T3 can accelerate ATDC5 hypertrophic differentiation leading to the strong induction Col10a1 expression between 10-14 days. SGK-inhibitors were added to differentiating ATDC5 cells for 14 days and Col10a1 gene expression was quantified to determine effects on chondrocyte hypertrophic differentiation.
Cell assay description: ATDC5 cells were maintained in 300 cm^2 tissue culture flasks in DMEM/Ham's F12+5% FCS supplemented with 10 μg/ml human transferrin, 30 nM sodium selenite, 50 μg/ml kanamycin and grown at 37° C. in 5% CO2 in 95% air. To initiate cell differentiation, 9.9×10^4 cells were plated in 24 well plates and grown for 2 days. Medium was exchanged with DMEM/Ham's F12+5% FCS supplemented with 10 μg/ml human transferrin, 30 nM sodium selenite, 50 μg/ml ascorbic acid and 1 μg/ml BMP2. The assay was run in triplicates, compounds were added in […], and medium changed every 2-3 days including supplementation of compound. At day 7 after initiation of cell differentiation, 1 μM T3 was used as additional supplement in the cell culture.
After two weeks of cell culture, RNA was isolated and converted to cDNA for determination of gene expression by quantitative real-time PCR. Cells were lysed in 600 μl of RLT-buffer (Qiagen) and total RNA was isolated using the RNA-easy Mini RNA isolation Kit (Qiagen) which was run on a Qiacube system (Qiagen) according to the supplier's instructions. RNA was isolated in 30 μl of pure water and the RNA content measured by UV-spectroscopy (Nanodrop, Peqlab). For cDNA synthesis 50 ng total RNA was reverse transcribed using the High Capacity cDNA Reverse Transcription Kit (Applied Biosystems, Product Number 4368813) according to the manufacturer's instructions. […]

[3] = test system: SGK-1 dependent phosphorylation of GSK3beta in U2OS cells; assay: SGK-1 dependent phosphorylation of GSK3beta in U2OS cells overexpressing recombinant SGK-1 and GSK3beta; assay type: cell-based, human; details: U2OS cells, 6 h incubation, ratio of phosphorylated GSK3beta to total GSK3beta, read-out: IC50 values for inhibition of SGK-1 dependent phosphorylation of GSK3beta in U2OS cells
[4] = peptide substrate 1 μM, ATP 10 μM, 60 min at 37° C., read-out: IC50 values for inhibition of SGK-1 enzymatic activity

Chain of recombinant human SGK-1 enzyme (O00141 whole entry, looked up): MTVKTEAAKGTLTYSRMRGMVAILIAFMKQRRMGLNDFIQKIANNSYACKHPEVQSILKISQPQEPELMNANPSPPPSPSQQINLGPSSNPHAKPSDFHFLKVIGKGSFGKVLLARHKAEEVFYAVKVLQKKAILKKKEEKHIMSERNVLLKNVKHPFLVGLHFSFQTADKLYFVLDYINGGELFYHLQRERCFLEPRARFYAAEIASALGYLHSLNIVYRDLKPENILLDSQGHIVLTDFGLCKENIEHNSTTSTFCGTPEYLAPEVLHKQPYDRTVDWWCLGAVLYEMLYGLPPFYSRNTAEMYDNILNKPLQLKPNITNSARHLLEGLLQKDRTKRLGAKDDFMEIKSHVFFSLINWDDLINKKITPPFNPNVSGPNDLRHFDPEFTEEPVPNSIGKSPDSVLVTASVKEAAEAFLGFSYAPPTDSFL

SMILES | pIC50 [1, 4] | pIC50 [2] | pIC50 [3] | pIC50 ([3]; Homo sapiens) | pIC50 ([1]; read-out: IC50 values for inhibition of SGK-1 enzymatic activity, peptide substrate 1 μM, ATP 10 μM, 60 min at 37° C.)
O=S(=O)(Nc1ccc(-c2nc(OCCO)c3cn[nH]c3n2)cc1)c1cc(Cl)ccc1F [Example 32] | 8.29 | 6.55 |  |  | 
O=S(=O)(Nc1ccc(-c2nc(O[C@H]3CC[C@@H](O)CC3)c3cn[nH]c3n2)cc1)c1cc(Cl)ccc1F [Example 79] |  | 7.60 |  |  | 
Cc1ccc(C#N)c(S(=O)(=O)Nc2ccc(-c3nc(OC4CCC(O)CC4)c4c(C)n[nH]c4n3)cc2)c1 (stereo not shown) [Example 96] | > 8.82 | 7.48 | 6.13 |  | 
Cc1n[nH]c2nc(-c3ccc(NS(=O)(=O)c4cc(F)ccc4F)cc3)nc(OC3CCCNC3)c12 (stereo not shown) [Example 321] | 8.16 | 6.17 | 7.42 |  | 
Cc1n[nH]c2nc(-c3ccc(NS(=O)(=O)c4cc(Cl)ccc4Cl)cc3)nc(OC3CCCNC3)c12 (stereo not shown) [Example 322] | 8.59 | 8.10 | 7.59 |  | 
CC(C)COc1nc(-c2ccc(NS(=O)(=O)c3cc(F)ccc3F)cc2)nc2[nH]nc(N)c12 [Example 328] | 6.77 | 7.03 | 6.82 |  | 
Cc1n[nH]c2nc(-c3ccc(NS(=O)(=O)c4cc(F)ccc4F)cc3)nc(OC3CCN(CCF)CC3)c12 [Example 344] | 8.30 | 7.80 |  |  | 
Cc1n[nH]c2nc(-c3ccc(NS(=O)(=O)c4cc(Cl)ccc4Cl)cc3)nc(OC3CCN(C(C)C)CC3)c12 [Example 351] | 8.42 | 7.37 |  |  | 
Cc1ccc(F)c(S(=O)(=O)Nc2ccc(-c3nc(OC4CCN(C(C)C)CC4)c4c(C)n[nH]c4n3)cc2)c1 [Example 353] | 8.42 | 7.68 |  |  | 
COc1ccc(F)c(S(=O)(=O)Nc2ccc(-c3nc(OC4CCN(C(C)C)CC4)c4c(C)n[nH]c4n3)cc2)c1 [Example 357] | 8.44 | 7.21 |  |  | 
Cc1n[nH]c2nc(-c3ccc(NS(=O)(=O)c4cc(Cl)ccc4Cl)cc3)nc(OCCCO)c12 [Example 378] | 8.24 | 7.24 |  |  | 
Cc1ccc(C#N)c(S(=O)(=O)Nc2ccc(-c3nc(OCCCO)c4c(C)n[nH]c4n3)cc2)c1 [Example 380] | 7.92 | 6.92 |  |  | 
Cc1n[nH]c2nc(-c3ccc(NS(=O)(=O)c4cc(Cl)ccc4F)cc3)nc(OCCCO)c12 [Example 391] | 8.02 | 6.92 |  |  | 
COCCCN1CCC(Oc2nc(-c3ccc(NS(=O)(=O)c4cc(F)ccc4F)cc3)nc3[nH]ncc23)CC1 [Example 394] | 6.92 | 6.54 |  |  | 
COCCCN1CCC(Oc2nc(-c3ccc(NS(=O)(=O)c4cc(F)ccc4F)cc3)nc3[nH]nc(C)c23)CC1 [Example 397] | 8.09 | 7.04 |  |  | 
Cc1n[nH]c2nc(-c3ccc(NS(=O)(=O)c4cc(F)ccc4F)cc3)nc(OC3CCN(C4CCC4)CC3)c12 [Example 398] | 7.60 | 8.14 |  |  | 
CCN1CCCC(Oc2nc(-c3ccc(NS(=O)(=O)c4cc(Cl)ccc4F)cc3)nc3[nH]nc(C)c23)C1 (stereo not shown) [Example 418] | 7.40 | 7.52 |  |  | 
CCN1CCCC(Oc2nc(-c3ccc(NS(=O)(=O)c4cc(Cl)ccc4Cl)cc3)nc3[nH]nc(C)c23)C1 (stereo not shown) [Example 422] | 7.40 | 6.96 |  |  | 
CCN1CCCC(Oc2nc(-c3ccc(NS(=O)(=O)c4cc(OC)ccc4F)cc3)nc3[nH]nc(C)c23)C1 (stereo not shown) [Example 424] | 7.89 | 7.21 |  |  | 
CCOc1nc(-c2ccc(NS(=O)(=O)c3cc(Cl)ccc3Cl)cc2)nc2[nH]nc(C)c12 [Example 426] | 7.96 | 7.22 |  |  | 

SMILES | pIC50 [1, 4] | pIC50 [2] | pIC50 [3] | pIC50 ([3]; Homo sapiens) | pIC50 ([1]; read-out: IC50 values for inhibition of SGK-1 enzymatic activity, peptide substrate 1 μM, ATP 10 μM, 60 min at 37° C.)
O=S(=O)(Nc1ccc(-c2nc(OC3CCC(O)CC3)c3cn[nH]c3n2)cc1F)c1cc(Cl)ccc1Cl (stereo not shown) [Example 439] | 8.60 | 7.36 | 6.96 |  | 
O=S(=O)(Nc1ccc(-c2nc(OC3CCC(O)CC3)c3cn[nH]c3n2)cc1F)c1cc(Cl)ccc1F (stereo not shown) [Example 440] | > 8.82 | 7.09 | 6.62 |  | 
CCOc1nc(-c2ccc(NS(=O)(=O)c3cc(Cl)c(F)cc3F)cc2)nc2[nH]nc(N)c12 [Example 451] | 9.24 | 8.00 |  |  | 
Cc1ccc(C#N)c(S(=O)(=O)Nc2ccc(-c3ncc4c(N)n[nH]c4n3)cc2)c1 [Example 453] | 8.80 | 6.26 | 5.68 |  | 
Cc1nc(-c2ccc(NS(=O)(=O)c3cc(Cl)ccc3C#N)cc2)nc2[nH]nc(N)c12 [Example 465] | > 8.82 | 6.15 | 5.92 |  | 
Cc1nc(-c2ccc(NS(=O)(=O)c3cc(Cl)ccc3Cl)cc2)nc2[nH]nc(N3CCC4(CC3)COC4)c12 [Example 496] | 8.21 | 6.85 | 5.15 |  | 
COCCc1nc(-c2ccc(NS(=O)(=O)c3cc(Cl)ccc3Cl)cc2)nc2[nH]nc(N)c12 [Example 505] | 7.33 |  | 6.21 |  | 
COCCc1nc(-c2ccc(NS(=O)(=O)c3cc(Cl)ccc3F)cc2)nc2[nH]nc(N)c12 [Example 506] | 6.96 |  | 6.17 |  | 
COCCc1nc(-c2ccc(NS(=O)(=O)c3cc(Cl)sc3Cl)cc2)nc2[nH]nc(N)c12 [Example 509] | 6.51 |  | 5.60 |  | 
COCCc1nc(-c2ccc(NS(=O)(=O)c3cc(C)ccc3C#N)cc2)nc2[nH]nc(N)c12 [Example 513] | 7.17 |  | 6.52 |  | 
Nc1n[nH]c2nc(-c3ccc(NS(=O)(=O)c4cc(F)c(F)cc4Cl)cc3)ncc12 [Example 514] | 6.60 |  | 6.57 |  | 
Nc1n[nH]c2nc(-c3ccc(NS(=O)(=O)c4cccc(Cl)c4F)cc3)ncc12 [Example 515] | 6.46 |  | 6.28 |  | 
Nc1n[nH]c2nc(-c3ccc(NS(=O)(=O)c4cc(F)c(F)cc4F)cc3)ncc12 [Example 516] | 6.52 |  | 6.19 |  | 
Nc1n[nH]c2nc(-c3ccc(NS(=O)(=O)c4ccccc4F)cc3)ncc12 [Example 517] | 6.38 |  | 6.77 |  | 
COCCc1nc(-c2ccc(NS(=O)(=O)c3cc(OC)ccc3C#N)cc2)nc2[nH]nc(N)c12 [Example 521] | 7.19 |  | 6.32 |  | 
COc1ccc(C#N)c(S(=O)(=O)Nc2ccc(-c3ncc4c(N)n[nH]c4n3)cc2)c1 [Example 522] | 8.62 |  | 6.54 |  | 
COc1cc(-c2ncc3c(C)n[nH]c3n2)ccc1NS(=O)(=O)c1cc(Cl)ccc1Cl [Example 534, 2,5-Dichloro-N-[2-methoxy-4-(3-methyl-1H-pyrazolo[3,4-d]pyrimidin-6-yl)-phenyl]-benzenesulfonamide] |  |  |  | 6.46 | > 8.82
Nc1n[nH]c2cc(-c3ccc(NS(=O)(=O)c4cc(Cl)sc4Cl)cc3)ncc12 [Example 558] | 7.89 |  | 6.28 |  | 
Nc1n[nH]c2cc(-c3ccc(NS(=O)(=O)c4cc(Cl)ccc4F)cc3)ncc12 [Example 559] | 7.72 |  | 6.41 |  | 
CC(=O)N1CCC(Oc2nc(-c3ccc(NS(=O)(=O)c4cc(Cl)ccc4F)cc3)cc3[nH]nc(C)c23)CC1 [Example 646] | 7.96 | 6.47 |  |  | 
